# Data from article PMC5041959, “A high-content EMT screen identifies multiple receptor tyrosine kinase inhibitors with activity on TGFβ receptor” (Oncotarget, 2016).
# Like-named read-outs stand apart in the source and are kept apart here.
# Columns and labels:
# FGFR2 = FGFR2 (Homo sapiens, UniProt P21802); assay: Biochemical kinase profiling (33PanQinase radiometric assay); conditions: read-out: FGFR2 IC50; ATP at apparent Km
# PDGFRA = PDGFRA (Homo sapiens, UniProt P16234); assay: as above; conditions: read-out: PDGFRA IC50; ATP at apparent Km
# PDGFRA, sequence (P16234 24-1089): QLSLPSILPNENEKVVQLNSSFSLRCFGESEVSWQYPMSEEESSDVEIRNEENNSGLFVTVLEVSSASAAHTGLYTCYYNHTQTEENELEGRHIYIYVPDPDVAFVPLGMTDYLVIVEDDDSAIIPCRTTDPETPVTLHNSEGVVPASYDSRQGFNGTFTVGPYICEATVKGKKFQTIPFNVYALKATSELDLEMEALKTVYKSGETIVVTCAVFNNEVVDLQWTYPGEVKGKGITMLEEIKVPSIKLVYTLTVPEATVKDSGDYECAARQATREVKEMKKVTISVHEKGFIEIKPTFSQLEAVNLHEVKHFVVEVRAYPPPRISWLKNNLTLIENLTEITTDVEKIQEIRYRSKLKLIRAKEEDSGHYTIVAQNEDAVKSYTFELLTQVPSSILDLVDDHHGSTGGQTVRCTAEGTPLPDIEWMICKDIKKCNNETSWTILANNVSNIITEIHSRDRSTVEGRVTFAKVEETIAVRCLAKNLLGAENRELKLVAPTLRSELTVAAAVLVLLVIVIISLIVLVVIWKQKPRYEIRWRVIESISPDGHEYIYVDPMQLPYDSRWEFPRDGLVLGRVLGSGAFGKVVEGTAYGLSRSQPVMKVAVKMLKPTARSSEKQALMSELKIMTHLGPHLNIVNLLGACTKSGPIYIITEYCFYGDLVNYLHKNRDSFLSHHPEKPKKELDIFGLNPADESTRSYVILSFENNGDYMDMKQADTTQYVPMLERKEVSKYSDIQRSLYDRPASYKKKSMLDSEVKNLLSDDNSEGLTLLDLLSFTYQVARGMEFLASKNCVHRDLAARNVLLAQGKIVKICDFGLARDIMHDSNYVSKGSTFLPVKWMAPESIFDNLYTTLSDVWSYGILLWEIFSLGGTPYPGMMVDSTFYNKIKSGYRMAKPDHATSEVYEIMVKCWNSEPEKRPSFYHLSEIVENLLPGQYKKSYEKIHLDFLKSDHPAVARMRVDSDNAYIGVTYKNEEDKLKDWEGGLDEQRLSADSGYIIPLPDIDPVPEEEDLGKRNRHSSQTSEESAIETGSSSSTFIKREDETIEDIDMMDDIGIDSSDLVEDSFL
# TGFBR1 = target: T1, TGFBR1 (Homo sapiens, UniProt P36897); assay: as above; conditions: read-out: TGFBR1 IC50; ATP at apparent Km
# T1 sequence (P36897 34-503): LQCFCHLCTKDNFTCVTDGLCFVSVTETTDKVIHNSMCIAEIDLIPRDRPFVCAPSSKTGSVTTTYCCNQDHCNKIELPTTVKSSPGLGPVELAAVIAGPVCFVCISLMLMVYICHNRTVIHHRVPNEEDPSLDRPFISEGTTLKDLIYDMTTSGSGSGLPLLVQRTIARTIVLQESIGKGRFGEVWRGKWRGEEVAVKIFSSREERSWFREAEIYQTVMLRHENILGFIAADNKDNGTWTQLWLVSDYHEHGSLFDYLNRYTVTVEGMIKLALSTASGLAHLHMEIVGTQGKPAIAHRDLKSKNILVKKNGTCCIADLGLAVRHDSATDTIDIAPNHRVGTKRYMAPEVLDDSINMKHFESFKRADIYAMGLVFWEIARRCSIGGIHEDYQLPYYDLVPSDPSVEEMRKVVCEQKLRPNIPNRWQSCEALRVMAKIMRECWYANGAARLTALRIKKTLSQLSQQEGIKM
# NMuMG cells = assay: High-content microscopy EMT screen in TGFβ-treated NMuMG cells (FA, SF, FN, cell count); type: cell-based, murine; conditions: for Emax: read-out: Emax (maximal effect on cell count)
# FGFR4 = FGFR4 (Homo sapiens, UniProt P22455); assay: Biochemical kinase profiling (33PanQinase radiometric assay); conditions: read-out: FGFR4 IC50; ATP at apparent Km
# FGFR4, sequence (P22455 22-802): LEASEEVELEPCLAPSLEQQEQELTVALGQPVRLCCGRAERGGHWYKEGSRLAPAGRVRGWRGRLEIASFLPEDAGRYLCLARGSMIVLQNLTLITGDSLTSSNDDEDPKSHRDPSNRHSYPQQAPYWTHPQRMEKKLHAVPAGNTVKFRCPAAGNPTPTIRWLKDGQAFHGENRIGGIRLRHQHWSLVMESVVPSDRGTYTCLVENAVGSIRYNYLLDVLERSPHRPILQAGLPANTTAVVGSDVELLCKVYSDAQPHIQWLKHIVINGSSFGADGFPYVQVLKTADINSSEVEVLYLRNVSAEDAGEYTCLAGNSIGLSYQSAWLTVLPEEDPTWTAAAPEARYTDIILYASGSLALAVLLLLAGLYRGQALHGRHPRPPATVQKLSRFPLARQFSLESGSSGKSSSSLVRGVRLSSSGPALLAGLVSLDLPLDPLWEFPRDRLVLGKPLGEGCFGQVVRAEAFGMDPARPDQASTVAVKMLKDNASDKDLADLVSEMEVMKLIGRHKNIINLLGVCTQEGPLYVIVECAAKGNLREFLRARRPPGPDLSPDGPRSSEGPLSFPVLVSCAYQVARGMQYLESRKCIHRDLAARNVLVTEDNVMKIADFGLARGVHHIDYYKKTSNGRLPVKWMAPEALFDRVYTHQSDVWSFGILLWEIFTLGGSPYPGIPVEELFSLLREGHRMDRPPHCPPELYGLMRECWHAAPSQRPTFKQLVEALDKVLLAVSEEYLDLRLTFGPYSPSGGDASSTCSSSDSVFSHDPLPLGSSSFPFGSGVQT
# TGFBR2 = TGFBR2 (Homo sapiens, UniProt P37173); assay: as above; conditions: read-out: TGFBR2 IC50; ATP at apparent Km
# TGFBR2, sequence (P37173 23-567): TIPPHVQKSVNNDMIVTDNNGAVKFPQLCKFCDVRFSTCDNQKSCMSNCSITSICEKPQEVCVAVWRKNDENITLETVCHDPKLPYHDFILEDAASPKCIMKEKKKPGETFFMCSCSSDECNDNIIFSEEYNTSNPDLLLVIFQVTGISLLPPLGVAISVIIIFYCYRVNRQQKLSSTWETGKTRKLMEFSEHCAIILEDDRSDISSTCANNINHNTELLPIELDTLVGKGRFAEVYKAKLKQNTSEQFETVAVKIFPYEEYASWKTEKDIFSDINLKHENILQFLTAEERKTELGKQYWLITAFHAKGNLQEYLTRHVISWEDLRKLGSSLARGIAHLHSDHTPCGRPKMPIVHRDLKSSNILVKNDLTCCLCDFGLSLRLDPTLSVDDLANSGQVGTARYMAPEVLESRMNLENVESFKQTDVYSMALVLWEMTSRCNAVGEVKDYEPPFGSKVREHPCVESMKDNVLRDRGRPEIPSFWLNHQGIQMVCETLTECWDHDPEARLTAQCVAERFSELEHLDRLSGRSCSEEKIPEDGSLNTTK
# PDGFRB = PDGFRB (Homo sapiens, UniProt P09619); assay: as above; conditions: read-out: PDGFRB IC50; ATP at apparent Km
# PDGFRB, sequence (P09619 33-1106): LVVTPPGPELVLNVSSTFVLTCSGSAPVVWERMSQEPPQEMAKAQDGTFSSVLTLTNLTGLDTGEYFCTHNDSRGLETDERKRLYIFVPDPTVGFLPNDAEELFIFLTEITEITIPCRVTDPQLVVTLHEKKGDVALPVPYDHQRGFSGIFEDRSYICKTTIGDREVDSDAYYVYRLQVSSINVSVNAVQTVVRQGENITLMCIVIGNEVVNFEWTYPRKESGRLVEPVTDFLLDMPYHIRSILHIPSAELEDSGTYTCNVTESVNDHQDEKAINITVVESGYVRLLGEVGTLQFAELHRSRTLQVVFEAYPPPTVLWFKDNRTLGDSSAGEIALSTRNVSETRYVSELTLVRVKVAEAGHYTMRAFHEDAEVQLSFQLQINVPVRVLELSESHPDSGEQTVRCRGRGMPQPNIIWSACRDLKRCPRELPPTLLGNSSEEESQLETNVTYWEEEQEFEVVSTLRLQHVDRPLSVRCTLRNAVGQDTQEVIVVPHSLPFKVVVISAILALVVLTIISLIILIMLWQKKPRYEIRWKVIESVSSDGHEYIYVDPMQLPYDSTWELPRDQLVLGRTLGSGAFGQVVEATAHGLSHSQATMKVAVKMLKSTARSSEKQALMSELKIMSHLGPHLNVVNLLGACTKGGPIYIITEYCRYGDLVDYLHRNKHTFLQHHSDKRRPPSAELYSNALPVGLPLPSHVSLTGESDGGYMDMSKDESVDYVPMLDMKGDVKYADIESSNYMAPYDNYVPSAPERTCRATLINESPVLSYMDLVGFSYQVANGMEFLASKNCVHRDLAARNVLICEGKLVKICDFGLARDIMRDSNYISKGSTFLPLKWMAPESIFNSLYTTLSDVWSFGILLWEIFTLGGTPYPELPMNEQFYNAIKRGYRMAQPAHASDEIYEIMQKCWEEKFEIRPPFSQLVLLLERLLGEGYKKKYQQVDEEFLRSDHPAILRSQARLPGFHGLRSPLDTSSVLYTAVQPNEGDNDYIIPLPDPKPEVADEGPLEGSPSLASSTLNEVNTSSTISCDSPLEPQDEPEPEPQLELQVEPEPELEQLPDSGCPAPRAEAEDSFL
# Py2T cells = assay: High-content microscopy EMT assay in TGFβ-treated Py2T breast cancer cells; type: cell-based, murine; conditions: for Emax (maximal effect on cell count): compared to reference 10 μM SB-431542 = 100%; for Emax: read-out: Emax (maximal effect on cell count)
# ROCK = ROCK cellular assay (MLC Thr18/Ser19 phosphorylation ELISA in A7r5 cells); type: cell-based, rat; conditions: 90 min compound
# SRC = SRC (Homo sapiens, UniProt P12931); assay: Biochemical kinase profiling (33PanQinase radiometric assay); conditions: read-out: SRC IC50; ATP at apparent Km
# SRC, sequence (P12931 whole entry): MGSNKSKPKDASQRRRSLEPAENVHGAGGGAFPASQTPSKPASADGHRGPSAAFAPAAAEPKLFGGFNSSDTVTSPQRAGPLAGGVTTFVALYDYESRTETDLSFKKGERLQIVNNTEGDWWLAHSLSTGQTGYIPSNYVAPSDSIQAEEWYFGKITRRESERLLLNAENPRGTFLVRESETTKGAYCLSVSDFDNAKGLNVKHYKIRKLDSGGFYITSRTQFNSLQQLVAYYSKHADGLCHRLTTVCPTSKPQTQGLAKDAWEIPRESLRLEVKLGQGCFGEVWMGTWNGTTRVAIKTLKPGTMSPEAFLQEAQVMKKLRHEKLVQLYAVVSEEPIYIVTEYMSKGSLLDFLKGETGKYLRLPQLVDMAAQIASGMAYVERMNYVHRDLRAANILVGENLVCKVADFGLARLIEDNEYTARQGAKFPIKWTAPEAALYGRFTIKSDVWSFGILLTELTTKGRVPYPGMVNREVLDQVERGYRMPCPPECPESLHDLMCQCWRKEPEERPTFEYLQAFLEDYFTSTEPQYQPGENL
# [1] = NMuMG, TGFβ1 2 ng/ml plus compound, 4 days, parameter decreased by 50%, read-out: FA IC50 (focal adhesion formation)
# [2] = NMuMG, TGFβ1 2 ng/ml plus compound, 4 days, parameter decreased by 50%, read-out: FN IC50 (fibronectin patch formation)
# [3] = NMuMG, TGFβ1 2 ng/ml plus compound, 4 days, parameter decreased by 50%, read-out: SF IC50 (stress fibers)
# [4] = NMuMG, cell count decreased by 50% compared to DMSO control, read-out: Tox IC50
# [5] = NMuMG, cell count increased by 50% compared to 100% with 10 μM SB-431542, read-out: CCI IC50 (cell count increase)
# [6] = NMuMG, compared to reference 10 μM SB-431542 = 100%
# [7] = NMuMG, mean of IC50 values obtained for FA, SF, FN, read-out: EMT (FA/SF/FN) combined IC50
# [8] = Py2T, TGFβ plus compound, 4 days
# [9] = Py2T, cell count decreased by 50% compared to DMSO control, read-out: Tox IC50
# [10] = Py2T, compared to 10 μM SB-431542, read-out: CCI IC50 (cell count increase)
# [11] = Mus musculus, read-out: CCI IC50 (cell count increase)
# [12] = Mus musculus, read-out: Tox IC50
# [13] = Mus musculus, NMuMG, cell count decreased by 50% compared to DMSO control, read-out: Tox IC50
# [14] = NMuMG, TGFβ1 2 ng/ml plus compound, 4 days, parameter decreased by 50%
# FGFR2, sequence (P21802 22-821): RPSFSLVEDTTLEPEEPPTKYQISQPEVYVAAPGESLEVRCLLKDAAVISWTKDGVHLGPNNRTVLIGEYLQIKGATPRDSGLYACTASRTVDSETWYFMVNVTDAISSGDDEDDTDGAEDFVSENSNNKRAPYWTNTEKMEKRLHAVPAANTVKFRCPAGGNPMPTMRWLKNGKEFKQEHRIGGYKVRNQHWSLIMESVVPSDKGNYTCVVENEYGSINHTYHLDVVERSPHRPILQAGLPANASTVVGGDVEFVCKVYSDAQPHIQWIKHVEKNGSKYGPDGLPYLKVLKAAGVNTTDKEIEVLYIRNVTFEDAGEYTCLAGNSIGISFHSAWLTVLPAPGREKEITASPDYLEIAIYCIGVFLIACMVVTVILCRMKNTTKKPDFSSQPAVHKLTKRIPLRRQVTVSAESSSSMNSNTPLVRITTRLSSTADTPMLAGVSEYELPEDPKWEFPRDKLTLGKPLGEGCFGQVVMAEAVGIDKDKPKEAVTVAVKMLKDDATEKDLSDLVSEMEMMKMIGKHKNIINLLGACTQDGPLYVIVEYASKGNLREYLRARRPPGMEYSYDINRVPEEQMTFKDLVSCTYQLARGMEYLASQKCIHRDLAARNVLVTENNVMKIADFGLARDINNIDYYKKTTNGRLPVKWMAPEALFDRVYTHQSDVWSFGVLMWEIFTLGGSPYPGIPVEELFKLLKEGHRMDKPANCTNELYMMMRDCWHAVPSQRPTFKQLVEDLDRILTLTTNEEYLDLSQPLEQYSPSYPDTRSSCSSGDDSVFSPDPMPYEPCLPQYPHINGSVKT
structure (smiles),measurement,setting,value
Cc1ccc(-c2nn(C(C)(C)C)c3ncnc(N)c23)cc1 [PP1],IC50,FGFR2,0.456 µM
same,IC50,PDGFRA,3.69 µM
same,IC50,TGFBR1,0.297 µM
same,IC50,NMuMG cells; [1],0.91 µM
same,IC50,NMuMG cells; [2],1.52 µM
same,IC50,NMuMG cells; [3],1.14 µM
same,IC50,NMuMG cells; [4],11.4 µM
same,IC50,NMuMG cells; [5],0.374 µM
same,Emax (maximal effect on cell count),NMuMG cells; [6],22.3%
same,IC50,NMuMG cells; [7],1.19 µM
same,IC50,FGFR4,0.622 µM
same,IC50,TGFBR2,1.31 µM
same,IC50,PDGFRB,0.132 µM
O=C(Nc1ccc(-c2cn[nH]c2)cc1)C1COc2ccccc2O1 (centres unmarked) [Rho kinase inhibitor V],FA IC50 (focal adhesions),Py2T cells; [8],n.m.
same,FN IC50 (fibronectin patches),Py2T cells; [8],n.m.
same,SF IC50 (stress fibers),Py2T cells; [8],n.m.
same,IC50,Py2T cells; [9],2.51 µM
same,IC50,Py2T cells; [10],0.101 µM
same,Emax (maximal effect on cell count),Py2T cells; Py2T,33.3%
same,IC50,NMuMG cells; [1],0.425 µM
same,IC50,NMuMG cells; [2],0.374 µM
same,IC50,NMuMG cells; [3],0.571 µM
same,IC50,NMuMG cells; [4],6.23 µM
same,IC50,NMuMG cells; [5],0.106 µM
same,Emax (maximal effect on cell count),NMuMG cells; [6],13.4%
same,IC50,NMuMG cells; [7],0.457 µM
same,IC50,ROCK,0.15 µM
CCn1c(-c2nonc2N)nc2cnc(Oc3cccc(NC(=O)c4ccc(OCCN5CCOCC5)cc4)c3)cc21 [GSK269962],IC50,"Py2T cells; Py2T, TGFβ plus compound, 4 days, read-out: FA IC50 (focal adhesions)",0.002 µM
same,IC50,"Py2T cells; Py2T, TGFβ plus compound, 4 days, read-out: FN IC50 (fibronectin patches)",0.005 µM
same,IC50,"Py2T cells; Py2T, TGFβ plus compound, 4 days, read-out: SF IC50 (stress fibers)",0.002 µM
same,IC50,Py2T cells; [9],0.564 µM
same,IC50,Py2T cells; [10],0.0005 µM
same,Emax (maximal effect on cell count),Py2T cells; Py2T,53%
same,IC50,ROCK,< 0.003 µM
O=S(=O)(c1cccc2cnccc12)N1CCCNCC1 [Fasudil],IC50,Py2T cells; [11],1.68 µM
same,Emax,Py2T cells; Mus musculus,53.6%
same,IC50,Py2T cells; [12],> 25 µM
same,IC50,NMuMG cells; [11],2.87 µM
same,IC50,"NMuMG cells; Mus musculus, read-out: EMT (FA/SF/FN) combined IC50",3.02 µM
same,Emax,NMuMG cells; Mus musculus,28.2%
same,IC50,NMuMG cells; [12],> 25 µM
CCn1c(-c2nonc2N)nc2cncc(C(=O)N3CC[C@H](N)C3)c21 [SB-772077B],IC50,Py2T cells; [11],0.0284 µM
same,Emax,Py2T cells; Mus musculus,63.6%
same,IC50,Py2T cells; [12],1.96 µM
same,IC50,"NMuMG cells; Mus musculus, 96 h, NMuMG, TGFβ1 2 ng/ml plus compound, 4 days, parameter decreased by 50%, read-out: FA IC50 (focal adhesion formation)",0.051 µM
same,IC50,"NMuMG cells; Mus musculus, 96 h, NMuMG, TGFβ1 2 ng/ml plus compound, 4 days, parameter decreased by 50%, read-out: FN IC50 (fibronectin patch formation)",0.054 µM
same,IC50,"NMuMG cells; Mus musculus, 96 h, NMuMG, TGFβ1 2 ng/ml plus compound, 4 days, parameter decreased by 50%, read-out: SF IC50 (stress fibers)",0.029 µM
same,IC50,NMuMG cells; [11],0.0505 µM
same,Emax,NMuMG cells; Mus musculus,30.5%
same,IC50,NMuMG cells; [13],5.33 µM
same,IC50,"NMuMG cells; Mus musculus, NMuMG, mean of IC50 values obtained for FA, SF, FN, read-out: EMT (FA/SF/FN) combined IC50",0.0447 µM
same,IC50,"ROCK; Rattus norvegicus, 1.5 h",0.028 µM
Cc1ccc2c(c1)C(=O)C1(O)CCN(c3ccccc3)C1=N2 (centres unmarked) [Blebbistatin],IC50,NMuMG cells; [1],4.22 µM
same,IC50,NMuMG cells; [2],2.55 µM
same,IC50,NMuMG cells; [3],3.32 µM
same,IC50,NMuMG cells; [4],> 5.13 µM
same,Emax (maximal effect on cell count),NMuMG cells; [6],29.4%
same,IC50,NMuMG cells; [7],3.36 µM
same,IC50,SRC,4.37 µM
O=C(Cc1ccc(-c2ccc(OCCN3CCOCC3)cc2)cn1)NCc1ccccc1 [KX2-391],FA IC50 (focal adhesion formation),NMuMG cells; [14],n.m.
same,FN IC50 (fibronectin patch formation),NMuMG cells; [14],n.m.
same,SF IC50 (stress fibers),NMuMG cells; [14],n.m.
same,IC50,NMuMG cells; [4],0.015 µM
same,CCI IC50 (cell count increase),"NMuMG cells; NMuMG, cell count increased by 50% compared to 100% with 10 μM SB-431542",n.m.
same,Emax (maximal effect on cell count),NMuMG cells; [6],n.m.
C[C@@H](Oc1cc(-c2cnn(C3CCNCC3)c2)cnc1N)c1c(Cl)ccc(F)c1Cl [Crizotinib],IC50,NMuMG cells; [13],1.72 µM
same,FA IC50 (focal adhesion formation),NMuMG cells; [14],n.m.
same,FN IC50 (fibronectin patch formation),NMuMG cells; [14],n.m.
same,SF IC50 (stress fibers),NMuMG cells; [14],n.m.
same,Emax (maximal effect on cell count),NMuMG cells; [6],n.m.
COc1cc2ncnc(Nc3ccc(F)c(Cl)c3)c2cc1OCCCN1CCOCC1 [Gefitinib],Emax (maximal effect on cell count),NMuMG cells,n.m.
